Experimental findings from ChEMBL document CHEMBL4184174 (Bioorg Med Chem Lett, 2018) are described below.

Data set [1] can be described thus: Half life in mouse at 10 mg/kg, po. Format: ADME, organism-based. To be noted: in vivo.
The subject of data set [2] is Mus musculus. The data set is described as follows: Oral bioavailability in mouse at 10 mg/kg. The following applies: in vivo. Format: ADME, organism-based.
Data set [3] is described as follows: Cmax in mouse at 10 mg/kg, po. It counts as ADME, organism-based. On the set-up: dose 10 mg/kg, route oral. The following applies: in vivo.
In data set [4] the test system is Mus musculus. Description: (§1) AUC in mouse at 10 mg/kg, po. The following applies: in vivo. Format: ADME, organism-based.
The nature of data set [5]: Volume of distribution in mouse at 2 mg/kg, iv. The following applies: in vivo. Format: ADME, organism-based.
Data set [6] can be described thus: Clearance in mouse plasma at 2 mg/kg, iv. It counts as ADME, organism-based.
Data set [7] is described as follows: as §1. Format: ADME, organism-based. To be noted: in vivo.
The target in data set [8] is T1, Alkaline phosphatase, tissue-nonspecific isozyme (Homo sapiens, UniProt P05186).
T1 sequence (P05186 whole entry): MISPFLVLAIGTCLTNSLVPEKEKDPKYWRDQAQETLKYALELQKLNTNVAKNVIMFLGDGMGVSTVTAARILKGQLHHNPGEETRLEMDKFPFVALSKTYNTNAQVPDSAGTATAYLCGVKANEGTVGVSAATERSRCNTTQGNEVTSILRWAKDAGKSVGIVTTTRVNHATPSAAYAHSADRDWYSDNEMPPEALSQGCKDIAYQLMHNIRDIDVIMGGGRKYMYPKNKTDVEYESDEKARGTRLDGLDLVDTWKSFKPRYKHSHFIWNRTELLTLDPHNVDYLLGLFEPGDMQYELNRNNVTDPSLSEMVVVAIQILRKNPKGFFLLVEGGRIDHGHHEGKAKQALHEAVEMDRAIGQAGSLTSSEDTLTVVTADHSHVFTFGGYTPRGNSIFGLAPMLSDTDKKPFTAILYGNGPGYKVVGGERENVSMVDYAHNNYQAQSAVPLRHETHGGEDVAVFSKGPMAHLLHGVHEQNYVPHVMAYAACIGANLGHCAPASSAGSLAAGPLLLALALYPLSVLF
Description: Inhibition of TNAP (unknown origin) using PPi as substrate.

Data set [9] concerns the target T1, Alkaline phosphatase, tissue-nonspecific isozyme. The data set is described as follows: Inhibition of TNAP (unknown origin) in whole blood using pNPP as substrate.
Data set [10] has as its system Mus musculus. Description: In vivo inhibition of TNAP in mouse plasma at 10 mg/kg, po administered as single dose after 8 hrs relative to control. Format: functional.
Data set [11] deals with Alkaline phosphatase, placental type (Homo sapiens, UniProt P05187). Description: Inhibition of PLAP (unknown origin).
Chain of Alkaline phosphatase, placental type (P05187 whole entry): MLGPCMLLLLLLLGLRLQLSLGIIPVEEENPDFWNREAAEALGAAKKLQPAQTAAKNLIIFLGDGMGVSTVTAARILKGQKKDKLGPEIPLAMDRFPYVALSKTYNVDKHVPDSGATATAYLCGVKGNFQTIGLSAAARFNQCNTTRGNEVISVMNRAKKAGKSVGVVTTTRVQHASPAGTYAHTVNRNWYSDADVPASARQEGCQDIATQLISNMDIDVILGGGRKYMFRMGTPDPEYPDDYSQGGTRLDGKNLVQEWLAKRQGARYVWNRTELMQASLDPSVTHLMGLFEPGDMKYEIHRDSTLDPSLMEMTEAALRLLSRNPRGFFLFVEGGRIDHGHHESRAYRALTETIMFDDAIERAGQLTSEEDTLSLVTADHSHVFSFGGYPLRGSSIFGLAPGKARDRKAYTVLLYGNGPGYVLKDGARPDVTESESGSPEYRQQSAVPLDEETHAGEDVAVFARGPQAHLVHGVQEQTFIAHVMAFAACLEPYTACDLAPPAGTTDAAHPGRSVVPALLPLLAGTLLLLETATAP
Data set [12] deals with Intestinal-type alkaline phosphatase (Homo sapiens, UniProt P09923). Description: Inhibition of IAP (unknown origin).
Chain of Intestinal-type alkaline phosphatase (P09923 whole entry): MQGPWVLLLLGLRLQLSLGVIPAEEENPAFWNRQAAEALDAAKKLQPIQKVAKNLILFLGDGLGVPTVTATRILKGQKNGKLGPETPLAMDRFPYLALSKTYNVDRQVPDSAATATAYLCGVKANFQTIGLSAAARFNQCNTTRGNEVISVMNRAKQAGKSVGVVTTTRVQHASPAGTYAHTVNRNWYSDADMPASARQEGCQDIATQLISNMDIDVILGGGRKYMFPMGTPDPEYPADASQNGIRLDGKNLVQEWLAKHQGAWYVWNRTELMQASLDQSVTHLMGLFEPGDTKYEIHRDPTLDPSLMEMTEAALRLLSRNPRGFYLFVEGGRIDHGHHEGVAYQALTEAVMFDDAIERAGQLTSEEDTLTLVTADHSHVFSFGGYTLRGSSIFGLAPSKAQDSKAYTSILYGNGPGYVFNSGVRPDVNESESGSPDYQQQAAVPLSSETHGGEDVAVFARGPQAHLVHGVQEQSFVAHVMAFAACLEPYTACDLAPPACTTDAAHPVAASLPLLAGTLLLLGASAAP
The subject of data set [13] is Mus musculus. The data set is described as follows: In vivo inhibition of TNAP in mouse plasma at 10 mg/kg, po administered as single dose measured at 24 hrs relative to control. It counts as functional.

The structures appear in SMILES notation.

`COc1ccc(Br)cc1S(=O)(=O)Nc1cncc(C(N)=O)c1`: in data set [1], the half-life is 2.2 h. In addition, the F in the data set with Mus musculus [2] is 70%. Also, in [3], the peak concentration (Cmax) turned out to be 133 µg/mL. The compound also yielded an AUC in the data set on Mus musculus [4] of 603 µg·h/mL. In addition, the Vd in data set [5] was 0.31 L/kg.

For `COc1ccc(F)cc1S(=O)(=O)Nc1cncc(C(N)=O)c1`, the clearance in data set [6] was 16.8 mL/min/kg. In [1], this compound gave a half-life of 3.7 h. The compound also had a F with Mus musculus [2] greater than 100%. This compound also had a Cmax in data set [3] of 63 µg/mL. For the same compound, the exposure (AUC) in [7] stood at 141 µg·h/mL. Further, the Vd in data set [5] stood at 0.88 L/kg.

`COc1ccc(-c2ccccc2)cc1S(=O)(=O)Nc1cccnc1`: the IC50 was 876 nM in [8] and greater than 20000 nM in data set [9].

As for `COc1ccc(Cl)cc1S(=O)(=O)Nc1cncc(C(N)=O)c1`, the inhibition in vivo at 10 mg/kg is greater than 75% in the data set with Mus musculus [10] and 50% with Mus musculus [13]. Moreover, the values for the IC50 in [11], in [12] and in data set [9] were greater than 80000 nM, greater than 80000 nM and 105 nM, respectively. This compound also had a half-life in data set [1] of 2.3 h. Also, the F with Mus musculus [2] is listed as 58%. Besides, in data set [3], the highest level (Cmax) was 178 µg/mL. This compound displayed an exposure (AUC) with Mus musculus [4] of 848 µg·h/mL. In data set [5], this compound came in with a distribution volume (Vd) of 1.03 L/kg.
